# Biological target: T1, human μ-opiate receptor (Homo sapiens, UniProt P35372)
# T1 construct: purchased PerkinElmer Life Sciences, Zaventem, Belgium RB-HOM; host or cells: CHO-K1 cells (recombinant expression; membrane preparation)
# Assay: Affinity for the human μ-opiate receptor ([3H]-naloxone displacement, SPA)
# Conditions: Table 1, aldehydes; test substance 1 μmole/l; inhibition of specific [3H]-naloxone binding; CHO-K1 membranes; read-out: μ-Opioid receptor, % inhibition [1 μM]
# Summary of the method: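 CHO-K1 membranes expressing the receptor, incubated 90 min at room temperature with 1 nmol/l [3H]-naloxone and WGA-SPA beads in 50 mmol/l Tris-HCl with 0.06% BSA. Non-specific binding defined with 100 μmol/l naloxone. Value is % inhibition of specific binding at 1 μmol/l test substance.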
# T1 sequence (P35372 whole entry): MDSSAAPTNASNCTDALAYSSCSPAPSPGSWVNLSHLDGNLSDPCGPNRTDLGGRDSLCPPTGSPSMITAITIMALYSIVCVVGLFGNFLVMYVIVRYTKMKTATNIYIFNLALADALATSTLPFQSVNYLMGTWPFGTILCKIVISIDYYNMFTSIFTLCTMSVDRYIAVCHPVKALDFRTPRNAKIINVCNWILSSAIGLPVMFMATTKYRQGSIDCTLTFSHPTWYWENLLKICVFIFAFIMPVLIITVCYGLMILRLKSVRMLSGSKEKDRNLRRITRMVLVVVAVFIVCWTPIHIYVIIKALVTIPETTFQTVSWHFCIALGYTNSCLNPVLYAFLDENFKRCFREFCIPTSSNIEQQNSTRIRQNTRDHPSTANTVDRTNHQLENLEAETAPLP
row,SMILES,inhibition at 1 µM [%]
1,"CN(C)C(c1cccs1)C1CCC(C=O)CC1 (stereo not drawn) [Example 9d, 4-(dimethylaminothiophen-2-yl-methyl)-cyclohexane carbaldehyde]",69

# Same assay, conditions: Table 2, Examples 11-161; test substance 1 μmole/l; inhibition of specific [3H]-naloxone binding; CHO-K1 membranes; read-out: μ-Opioid receptor, % inhibition [1 μM]
row,SMILES,inhibition at 1 µM [%]
1,"CCCCN1C=NC(CCC(=O)OC)(C(=O)OC)C1C1CCC(C(c2cccc(F)c2)N(C)C)CC1 (stereo not drawn) [Example 65, 1-butyl-5-{4-[dimethylamino-(3-fluorophenyl)-methyl]-cyclohexyl}-4-(2-methoxycarbonylethyl)-4,5-dihydro-1H-imidazole-4-carboxylic acid methyl ester]",78
2,"COC(=O)C1(CSCc2ccccc2)N=CN(Cc2ccccc2)C1CC1CCC(C(c2cccc(F)c2)N(C)C)CC1 (stereo not drawn) [Example 86, 1-benzyl-4-benzylsulfanylmethyl-5-{4-[dimethylamino-(3-fluorophenyl)-methyl]-cyclohexylmethyl}-4,5-dihydro-1H-imidazole-4-carboxylic acid methyl ester]",71
3,"COC(=O)C1(CC(C)C)N=CN(CCc2ccccc2)C1C1CCC(C(c2ccc(Cl)cc2)N(C)C)CC1 (stereo not drawn) [Example 40, 5-{4-[(4-chlorophenyl)-dimethylaminomethyl]-cyclohexyl}-4-isobutyl-1-phenethyl-4,5-dihydro-1H-imidazole-4-carboxylic acid methyl ester]",95
4,"CCCN1C=NC(CSCc2ccccc2)(C(=O)OC)C1C1CCC(C(c2cccc(F)c2)N(C)C)CC1 (stereo not drawn) [Example 58, 4-benzylsulfanylmethyl-5-{4-[dimethylamino-(3-fluorophenyl)-methyl]-cyclohexyl}-1-propyl-4,5-dihydro-1H-imidazole-4-carboxylic acid methyl ester]",81
5,"COC(=O)C1(C)N=CN(CCc2ccccc2)C1CC1CCC(C(c2cccc(F)c2)N(C)C)CC1 (stereo not drawn) [Example 131, 5-{4-[dimethylamino-(3-fluorophenyl)-methyl]-cyclohexylmethyl}-4-methyl-1-phenethyl-4,5-dihydro-1H-imidazole-4-carboxylic acid methyl ester]",100
6,"COC(=O)C1(Cc2ccc(Cl)cc2)N=CN(C2CCCCC2)C1CC1CCC(C(c2ccc(Cl)cc2)N(C)C)CC1 (stereo not drawn) [Example 18, 4-(4-chlorobenzyl)-5-{4-[(4-chlorophenyl)-dimethylaminomethyl]-cyclohexylmethyl}-1-cyclohexyl-4,5-dihydro-1H-imidazole-4-carboxylic acid methyl ester]",90
7,"COC(=O)C1(CSCc2ccccc2)N=CN(Cc2ccccc2)C1C1CCC(C(c2cccc(F)c2)N(C)C)CC1 (stereo not drawn) [Example 97, 1-benzyl-4-benzylsulfanylmethyl-5-{4-[dimethylamino-(3-fluorophenyl)-methyl]-cyclohexyl}-4,5-dihydro-1H-imidazole-4-carboxylic acid methyl ester]",97
8,"CCCN1C=NC(CSCc2ccccc2)(C(=O)OC)C1CC1CCC(C(c2ccc(F)cc2)N(C)C)CC1 (stereo not drawn) [Example 161, 4-benzylsulfanylmethyl-5-{4-[dimethylamino-(4-fluorophenyl)-methyl]-cyclohexylmethyl}-1-propyl-4,5-dihydro-1H-imidazole-4-carboxylic acid methyl ester]",91
9,"COC(=O)C1(CCSC)N=CN(C2CCCCC2)C1CC1CCC(C(CCc2ccccc2)N(C)C)CC1 (stereo not drawn) [Example 109, 1-cyclohexyl-5-[4-(1-dimethylamino-3-phenylpropyl)-cyclohexylmethyl]-4-(2-methylsulfanyl-ethyl)-4,5-dihydro-1H-imidazole-4-carboxylic acid methyl ester]",87
10,"CCCCN1C=NC(C)(C(=O)OC)C1CC1CCC(C(c2cccc(F)c2)N(C)C)CC1 (stereo not drawn) [Example 124, 1-butyl-5-{4-[dimethylamino-(3-fluorophenyl)-methyl]-cyclohexylmethyl}-4-methyl-4,5-dihydro-1H-imidazole-4-carboxylic acid methyl ester]",95
11,"COC(=O)C1(CC(C)C)N=CN(C2CCCCC2)C1C1CCC(C(c2cccc(F)c2)N(C)C)CC1 (stereo not drawn) [Example 11, 1-cyclohexyl-5-{4-[dimethylamino-(3-fluorophenyl)-methyl]-cyclohexyl}-4-isobutyl-4,5-dihydro-1H-imidazole-4-carboxylic acid methyl ester]",84
12,"CCCCN1C=NC(Cc2ccc(Cl)cc2)(C(=O)OC)C1CC1CCC(C(c2ccc(Cl)cc2)N(C)C)CC1 (stereo not drawn) [Example 35, 1-butyl-4-(4-chlorobenzyl)-5-{4-[(4-chlorophenyl)-dimethylaminomethyl]-cyclohexylmethyl}-4,5-dihydro-1H-imidazole-4-carboxylic acid methyl ester]",92
13,"COC(=O)C1(C)N=CN(CCc2ccccc2)C1CC1CCC(C(CCc2ccccc2)N(C)C)CC1 (stereo not drawn) [Example 137, 5-[4-(1-dimethylamino-3-phenylpropyl)-cyclohexylmethyl]-4-methyl-1-phenethyl-4,5-dihydro-1H-imidazole-4-carboxylic acid methyl ester]",61
14,"CCCCN1C=NC(CCC)(C(=O)OC)C1CC1CCC(C(CCc2ccccc2)N(C)C)CC1 (stereo not drawn) [Example 127, 1-butyl-5-[4-(1-dimethylamino-3-phenylpropyl)-cyclohexylmethyl]-4-propyl-4,5-dihydro-1H-imidazole-4-carboxylic acid methyl ester]",74
15,"CCCN1C=NC(CCSC)(C(=O)OC)C1CC1CCC(C(c2ccc(F)cc2)N(C)C)CC1 (stereo not drawn) [Example 119, 5-{4-[dimethylamino-(4-fluorophenyl)-methyl]-cyclohexylmethyl}-4-(2-methylsulfanylethyl)-1-propyl-4,5-dihydro-1H-imidazole-4-carboxylic acid methyl ester]",90
16,"CCCC1(C(=O)OC)N=CN(C2CCCCC2)C1CC1CCC(C(c2ccc(F)cc2)N(C)C)CC1 (stereo not drawn) [Example 105, 1-cyclohexyl-5-{4-[dimethylamino-(4-fluorophenyl)-methyl]-cyclohexylmethyl}-4-propyl-4,5-dihydro-1H-imidazole-4-carboxylic acid methyl ester]",95
17,"COC(=O)C1(CSCc2ccccc2)N=CN(C2CCCCC2)C1C1CCC(C(c2ccc(Cl)cc2)N(C)C)CC1 (stereo not drawn) [Example 52, 4-benzylsulfanylmethyl-5-{4-[(4-chlorophenyl)-dimethylaminomethyl]-cyclohexyl}-1-cyclohexyl-4,5-dihydro-1H-imidazole-4-carboxylic acid methyl ester]",99
18,"COC(=O)C1(Cc2ccc(Cl)cc2)N=CN(Cc2ccccc2)C1CC1CCC(C(c2ccc(Cl)cc2)N(C)C)CC1 (stereo not drawn) [Example 113, 1-benzyl-4-(4-chlorobenzyl)-5-{4-[(4-chlorophenyl)-dimethylaminomethyl]-cyclohexylmethyl}-4,5-dihydro-1H-imidazole-4-carboxylic acid methyl ester]",92
19,"COC(=O)C1(CC(C)C)N=CN(Cc2ccccc2)C1CC1CCC(C(c2ccc(Cl)cc2)N(C)C)CC1 (stereo not drawn) [Example 50, 1-benzyl-5-{4-[(4-chlorophenyl)-dimethylaminomethyl]-cyclohexylmethyl}-4-isobutyl-4,5-dihydro-1H-imidazole-4-carboxylic acid methyl ester]",94
20,"COC(=O)C1(C)N=CN(Cc2ccccc2)C1CC1CCC(C(c2cccc(F)c2)N(C)C)CC1 (stereo not drawn) [Example 140, 1-benzyl-5-{4-[dimethylamino-(3-fluorophenyl)-methyl]-cyclohexylmethyl}-4-methyl-4,5-dihydro-1H-imidazole-4-carboxylic acid methyl ester]",98
21,"CCCCN1C=NC(CSCc2ccccc2)(C(=O)OC)C1CC1CCC(C(CCc2ccccc2)N(C)C)CC1 (stereo not drawn) [Example 79, 4-benzylsulfanylmethyl-1-butyl-5-[4-(1-dimethylamino-3-phenylpropyl)-cyclohexylmethyl]-4,5-dihydro-1H-imidazole-4-carboxylic acid methyl ester]",79
22,"CCCCN1C=NC(CCC(=O)OC)(C(=O)OC)C1CC1CCC(C(c2ccc(F)cc2)N(C)C)CC1 (stereo not drawn) [Example 76, 1-butyl-5-{4-[dimethylamino-(4-fluorophenyl)-methyl]-cyclohexylmethyl}-4-(2-methoxycarbonylethyl)-4,5-dihydro-1H-imidazole-4-carboxylic acid methyl ester]",93
23,"CCCN1C=NC(CC(C)C)(C(=O)OC)C1CC1CCC(C(c2ccc(Cl)cc2)N(C)C)CC1 (stereo not drawn) [Example 26, 5-{4-[(4-chlorophenyl)-dimethylaminomethyl]-cyclohexylmethyl}-4-isobutyl-1-propyl-4,5-dihydro-1H-imidazole-4-carboxylic acid methyl ester]",96
24,"CCCCN1C=NC(CSCc2ccccc2)(C(=O)OC)C1CC1CCC(C(c2ccc(Cl)cc2)N(C)C)CC1 (stereo not drawn) [Example 90, 4-benzylsulfanylmethyl-1-butyl-5-{4-[(4-chlorophenyl)-dimethylaminomethyl]-cyclohexylmethyl}-4,5-dihydro-1H-imidazole-4-carboxylic acid methyl ester]",99
25,"CCCN1C=NC(CSCc2ccccc2)(C(=O)OC)C1CC1CCC(C(c2ccc(Cl)cc2)N(C)C)CC1 (stereo not drawn) [Example 64, 4-benzylsulfanylmethyl-5-{4-[(4-chlorophenyl)-dimethylaminomethyl]-cyclohexylmethyl}-1-propyl-4,5-dihydro-1H-imidazole-4-carboxylic acid methyl ester]",98
26,"COC(=O)C1(C)N=CN(C2CCCCC2)C1CC1CCC(C(CCc2ccccc2)N(C)C)CC1 (stereo not drawn) [Example 110, 1-cyclohexyl-5-[4-(1-dimethylamino-3-phenylpropyl)-cyclohexylmethyl]-4-methyl-4,5-dihydro-1H-imidazole-4-carboxylic acid methyl ester]",67
